{"source": "PubChem BioAssay (NCI)", "assay_in_all_cases": "NCI tumour cell line growth inhibition, 48 h", "key": {"[1]": {"system": "HCT-116 colon"}, "[2]": {"system": "MDA-N"}, "[3]": {"system": "SF-268 CNS"}, "[4]": {"system": "T-47D breast"}, "[5]": {"system": "ACHN renal"}, "[6]": {"system": "NCI-H226 lung"}, "[7]": {"system": "SF-295 CNS"}, "[8]": {"system": "OVCAR-4 ovarian"}, "[9]": {"system": "A498 renal"}, "[10]": {"system": "SNB-19 CNS"}, "[11]": {"system": "SR leukemia"}, "[12]": {"system": "RXF 393 renal"}, "[13]": {"system": "PC-3 prostate"}, "[14]": {"system": "HCC-2998 colon"}, "[15]": {"system": "SW-620 colon"}, "[16]": {"system": "DU-145 prostate"}, "[17]": {"system": "SK-MEL-28 melanoma"}, "[18]": {"system": "HOP-92 NSCLC"}, "[19]": {"system": "NCI-H522 lung"}, "[20]": {"system": "HS 578T breast"}, "[21]": {"system": "HT29 colon"}, "[22]": {"system": "CCRF-CEM leukemia"}, "[23]": {"system": "NCI-H23 lung"}, "[24]": {"system": "K-562 leukemia"}, "[25]": {"system": "UACC-257 melanoma"}, "[26]": {"system": "COLO 205 colon"}, "[27]": {"system": "OVCAR-8 ovarian"}, "[28]": {"system": "NCI/ADR-RES ovarian"}, "[29]": {"system": "MCF7 breast"}, "[30]": {"system": "MDA-MB-435"}, "[31]": {"system": "KM12 colon"}, "[32]": {"system": "LOX IMVI melanoma"}, "[33]": {"system": "UO-31 renal"}, "[34]": {"system": "SN12C renal"}, "[35]": {"system": "NCI-H460 lung"}, "[36]": {"system": "HCT-15 colon"}, "[37]": {"system": "SNB-75 CNS"}, "[38]": {"system": "OVCAR-3 ovarian"}, "[39]": {"system": "A549 NSCLC"}, "[40]": {"system": "M14 melanoma"}, "[41]": {"system": "U251 CNS"}, "[42]": {"system": "MDA-MB-231 breast"}, "[43]": {"system": "SK-MEL-5 melanoma"}, "[44]": {"system": "MOLT-4 leukemia"}, "[45]": {"system": "TK-10 renal"}, "[46]": {"system": "BT-549 breast"}, "[47]": {"system": "UACC-62 melanoma"}, "[48]": {"system": "SF-539 CNS"}, "[49]": {"system": "OVCAR-5 ovarian"}, "[50]": {"system": "SK-MEL-2 melanoma"}, "[51]": {"system": "HL-60(TB) leukemia"}, "[52]": {"system": "IGROV1 ovarian"}, "[53]": {"system": "CAKI-1 renal"}, "[54]": {"system": "HOP-62 NSCLC"}, "[55]": {"system": "786-0 renal"}, "[56]": {"system": "SK-OV-3 ovarian"}, "[57]": {"system": "EKVX NSCLC"}, "[58]": {"system": "MALME-3M melanoma"}}, "note": "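Interpolation was linear, between the two tested concentrations surrounding the appropriate level; five concentrations were tested over 48 hours in 96-well plates. TGI: total growth inhibition.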", "data": [{"compound": "C=CCNc1ccc(C)cc1", "values": [{"measurement": "TGI", "setting": "[1]", "value": "> 100", "unit": "µM"}, {"measurement": "TGI", "setting": "[2]", "value": "> 100", "unit": "µM"}, {"measurement": "TGI", "setting": "[3]", "value": "> 100", "unit": "µM"}, {"measurement": "TGI", "setting": "[4]", "value": "> 100", "unit": "µM"}, {"measurement": "TGI", "setting": "[5]", "value": "> 100", "unit": "µM"}, {"measurement": "TGI", "setting": "[6]", "value": "> 100", "unit": "µM"}, {"measurement": "TGI", "setting": "[7]", "value": "> 100", "unit": "µM"}, {"measurement": "TGI", "setting": "[8]", "value": "> 100", "unit": "µM"}, {"measurement": "TGI", "setting": "[9]", "value": 30.7, "unit": "µM"}, {"measurement": "TGI", "setting": "[10]", "value": "> 100", "unit": "µM"}, {"measurement": "TGI", "setting": "[11]", "value": "> 100", "unit": "µM"}, {"measurement": "TGI", "setting": "[12]", "value": "> 100", "unit": "µM"}, {"measurement": "TGI", "setting": "[13]", "value": "> 100", "unit": "µM"}, {"measurement": "TGI", "setting": "[14]", "value": "> 100", "unit": "µM"}, {"measurement": "TGI", "setting": "[15]", "value": "> 100", "unit": "µM"}, {"measurement": "TGI", "setting": "[16]", "value": "> 100", "unit": "µM"}, {"measurement": "TGI", "setting": "[17]", "value": "> 100", "unit": "µM"}, {"measurement": "TGI", "setting": "[18]", "value": "> 100", "unit": "µM"}, {"measurement": "TGI", "setting": "[19]", "value": "> 100", "unit": "µM"}, {"measurement": "TGI", "setting": "[20]", "value": "> 100", "unit": "µM"}, {"measurement": "TGI", "setting": "[21]", "value": "> 100", "unit": "µM"}, {"measurement": "TGI", "setting": "[22]", "value": "> 100", "unit": "µM"}, {"measurement": "TGI", "setting": "[23]", "value": "> 100", "unit": "µM"}, {"measurement": "TGI", "setting": "[24]", "value": "> 100", "unit": "µM"}, {"measurement": "TGI", "setting": "[25]", "value": "> 100", "unit": "µM"}, {"measurement": "TGI", "setting": "[26]", "value": "> 100", "unit": "µM"}, {"measurement": "TGI", "setting": "[27]", "value": "> 100", "unit": "µM"}, {"measurement": "TGI", "setting": "[28]", "value": "> 100", "unit": "µM"}, {"measurement": "TGI", "setting": "[29]", "value": "> 100", "unit": "µM"}, {"measurement": "TGI", "setting": "[30]", "value": "> 100", "unit": "µM"}, {"measurement": "TGI", "setting": "[31]", "value": "> 100", "unit": "µM"}, {"measurement": "TGI", "setting": "[32]", "value": "> 100", "unit": "µM"}, {"measurement": "TGI", "setting": "[33]", "value": "> 100", "unit": "µM"}, {"measurement": "TGI", "setting": "[34]", "value": "> 100", "unit": "µM"}, {"measurement": "TGI", "setting": "[35]", "value": "> 100", "unit": "µM"}, {"measurement": "TGI", "setting": "[36]", "value": "> 100", "unit": "µM"}, {"measurement": "TGI", "setting": "[37]", "value": "> 100", "unit": "µM"}, {"measurement": "TGI", "setting": "[38]", "value": "> 100", "unit": "µM"}, {"measurement": "TGI", "setting": "[39]", "value": "> 100", "unit": "µM"}, {"measurement": "TGI", "setting": "[40]", "value": "> 100", "unit": "µM"}, {"measurement": "TGI", "setting": "[41]", "value": "> 100", "unit": "µM"}, {"measurement": "TGI", "setting": "[42]", "value": "> 100", "unit": "µM"}, {"measurement": "TGI", "setting": "[43]", "value": "> 100", "unit": "µM"}, {"measurement": "TGI", "setting": "[44]", "value": "> 100", "unit": "µM"}, {"measurement": "TGI", "setting": "[45]", "value": "> 100", "unit": "µM"}]}, {"compound": "CSc1ccc(C2C(Cl)C(=O)N2NC(=O)c2c(Cl)c(Cl)c(Cl)c(Cl)c2-c2nc3ccccc3[nH]2)cc1", "note": "(configuration not stated)", "values": [{"measurement": "TGI", "setting": "[1]", "value": 33.7, "unit": "µM"}, {"measurement": "TGI", "setting": "[2]", "value": 87.9, "unit": "µM"}, {"measurement": "TGI", "setting": "[3]", "value": 64.4, "unit": "µM"}, {"measurement": "TGI", "setting": "[46]", "value": 48.1, "unit": "µM"}, {"measurement": "TGI", "setting": "[4]", "value": 12.3, "unit": "µM"}, {"measurement": "TGI", "setting": "[5]", "value": 71.4, "unit": "µM"}, {"measurement": "TGI", "setting": "[6]", "value": 38.5, "unit": "µM"}, {"measurement": "TGI", "setting": "[7]", "value": "> 100", "unit": "µM"}, {"measurement": "TGI", "setting": "[9]", "value": 72.1, "unit": "µM"}, {"measurement": "TGI", "setting": "[10]", "value": 73.4, "unit": "µM"}, {"measurement": "TGI", "setting": "[11]", "value": "> 100", "unit": "µM"}, {"measurement": "TGI", "setting": "[12]", "value": 5.01, "unit": "µM"}, {"measurement": "TGI", "setting": "[13]", "value": 45.8, "unit": "µM"}, {"measurement": "TGI", "setting": "[14]", "value": 37, "unit": "µM"}, {"measurement": "TGI", "setting": "[15]", "value": "> 100", "unit": "µM"}, {"measurement": "TGI", "setting": "[47]", "value": "> 100", "unit": "µM"}, {"measurement": "TGI", "setting": "[16]", "value": 31.3, "unit": "µM"}, {"measurement": "TGI", "setting": "[48]", "value": 53.4, "unit": "µM"}, {"measurement": "TGI", "setting": "[49]", "value": 53.4, "unit": "µM"}, {"measurement": "TGI", "setting": "[17]", "value": 44.4, "unit": "µM"}, {"measurement": "TGI", "setting": "[50]", "value": "> 100", "unit": "µM"}, {"measurement": "TGI", "setting": "[51]", "value": 55.1, "unit": "µM"}, {"measurement": "TGI", "setting": "[18]", "value": 25.1, "unit": "µM"}, {"measurement": "TGI", "setting": "[19]", "value": 4.87, "unit": "µM"}, {"measurement": "TGI", "setting": "[20]", "value": "> 100", "unit": "µM"}, {"measurement": "TGI", "setting": "[21]", "value": "> 100", "unit": "µM"}, {"measurement": "TGI", "setting": "[52]", "value": 2.14, "unit": "µM"}, {"measurement": "TGI", "setting": "[23]", "value": 43.1, "unit": "µM"}, {"measurement": "TGI", "setting": "[24]", "value": "> 100", "unit": "µM"}, {"measurement": "TGI", "setting": "[25]", "value": 51.3, "unit": "µM"}, {"measurement": "TGI", "setting": "[26]", "value": 40.6, "unit": "µM"}, {"measurement": "TGI", "setting": "[27]", "value": 59.9, "unit": "µM"}, {"measurement": "TGI", "setting": "[28]", "value": "> 100", "unit": "µM"}, {"measurement": "TGI", "setting": "[29]", "value": "> 100", "unit": "µM"}, {"measurement": "TGI", "setting": "[30]", "value": 37, "unit": "µM"}, {"measurement": "TGI", "setting": "[53]", "value": 42.8, "unit": "µM"}, {"measurement": "TGI", "setting": "[31]", "value": 34.8, "unit": "µM"}, {"measurement": "TGI", "setting": "[54]", "value": "> 100", "unit": "µM"}, {"measurement": "TGI", "setting": "[32]", "value": 15.6, "unit": "µM"}, {"measurement": "TGI", "setting": "[33]", "value": "> 100", "unit": "µM"}, {"measurement": "TGI", "setting": "[34]", "value": 37, "unit": "µM"}, {"measurement": "TGI", "setting": "[55]", "value": 76.8, "unit": "µM"}, {"measurement": "TGI", "setting": "[36]", "value": 60.4, "unit": "µM"}, {"measurement": "TGI", "setting": "[37]", "value": 35.4, "unit": "µM"}, {"measurement": "TGI", "setting": "[56]", "value": 93.4, "unit": "µM"}, {"measurement": "TGI", "setting": "[38]", "value": 50.7, "unit": "µM"}, {"measurement": "TGI", "setting": "[39]", "value": "> 100", "unit": "µM"}, {"measurement": "TGI", "setting": "[40]", "value": 56.7, "unit": "µM"}, {"measurement": "TGI", "setting": "[57]", "value": 37.9, "unit": "µM"}, {"measurement": "TGI", "setting": "[43]", "value": 35.7, "unit": "µM"}, {"measurement": "TGI", "setting": "[58]", "value": 39.5, "unit": "µM"}, {"measurement": "TGI", "setting": "[44]", "value": 68.7, "unit": "µM"}]}]}
